Results reported in patent publication US7553867B2, “Furan or thiophene derivative and medicinal use thereof” (Takeda Pharmaceutical Company Limited, priority 2002, dated 2009).

Key:
PPARγ-RXRα heterodimer = molecular target: T1, PPARγ-RXRα heterodimer (Homo sapiens, UniProt P37231); test: PPARγ-RXRα heterodimer ligand activity (luciferase reporter, PPARγ:RXRα:4ERPP/CHO-K1 cells); assay type: cell-based; conditions: luciferase activity at 100 nM test compound relative to non-administration group as 1
T1 construct: expressed in transfected cells
T1 sequence (P37231 1-477 isoform P37231-2): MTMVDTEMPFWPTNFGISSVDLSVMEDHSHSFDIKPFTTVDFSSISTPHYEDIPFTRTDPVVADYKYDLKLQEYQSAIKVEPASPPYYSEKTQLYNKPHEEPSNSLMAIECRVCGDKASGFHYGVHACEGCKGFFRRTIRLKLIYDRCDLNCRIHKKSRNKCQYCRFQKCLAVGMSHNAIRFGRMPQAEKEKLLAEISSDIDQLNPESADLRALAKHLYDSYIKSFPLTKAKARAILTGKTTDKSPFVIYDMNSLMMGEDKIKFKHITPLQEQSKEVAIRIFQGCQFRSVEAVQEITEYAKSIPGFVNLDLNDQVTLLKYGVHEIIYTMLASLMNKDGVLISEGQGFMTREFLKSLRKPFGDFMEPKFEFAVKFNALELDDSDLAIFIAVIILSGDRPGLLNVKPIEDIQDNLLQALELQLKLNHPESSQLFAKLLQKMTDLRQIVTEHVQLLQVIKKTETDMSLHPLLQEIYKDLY
T1 sequence (P19793 1-462 partner): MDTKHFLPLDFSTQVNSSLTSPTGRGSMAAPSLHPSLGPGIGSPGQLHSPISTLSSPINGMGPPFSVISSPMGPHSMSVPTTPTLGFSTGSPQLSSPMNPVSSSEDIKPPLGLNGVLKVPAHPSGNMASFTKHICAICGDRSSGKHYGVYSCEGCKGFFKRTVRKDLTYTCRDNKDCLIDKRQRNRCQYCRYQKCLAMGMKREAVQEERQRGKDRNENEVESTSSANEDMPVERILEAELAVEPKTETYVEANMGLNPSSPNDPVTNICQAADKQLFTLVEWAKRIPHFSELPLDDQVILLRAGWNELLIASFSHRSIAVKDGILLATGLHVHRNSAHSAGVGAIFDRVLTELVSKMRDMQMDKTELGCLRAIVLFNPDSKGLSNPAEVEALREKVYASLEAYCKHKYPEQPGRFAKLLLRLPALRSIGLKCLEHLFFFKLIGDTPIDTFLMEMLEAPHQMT
Protocol: The PPARγ:RXRα:4ERPP/CHO-K1 cells obtained in Reference Example 8a were cultured in Ham's F12 medium [produced by Life Technologies, Inc., USA] containing 10% fetal bovine serum [produced by Life Technologies, Inc., USA] and inoculated to a 96-well white plate [produced by Corning Coster Corporation, USA] at 2×10^4 cells/well and cultured overnight at 37° C. in a carbon dioxide gas incubator.
After removal of the medium from the 96-well white plate which had been cultured overnight, Ham's F12 medium containing 80 μl of 0.1% fatty acid-free bovine serum albumin (BSA) and 20 μl of a test compound were added, and the plate was incubated at 37° C. in a carbon dioxide gas incubator for 18 to 24 hours. After removal of the medium, 40 μl of PicaGene 7.5 (produced by Waco Pure Chemicals Industries, Ltd.) diluted twofold with HBSS (HANKS' BALANCED SALT SOLUTION) (produced by BIO WHITTAKER) was added, and after stirring, the luciferase activity was determined using 1420 ARVO Multilabel Counter [produced by Wallac].
A fold induction was calculated from the luciferase activity for addition of each 100 nM of the test compound relative to the luciferase activity of the test compound non-administration group as 1. Results are shown in [Table 1]. […]

SMILES: CCCCCCCN(C(=O)c1cc(-c2ccc(F)cc2)oc1C)c1cccc(CSCC(=O)O)c1 [Example 1(3), [(3{[5-(4-Fluorophenyl)-2-methyl-3-furoyl](heptyl)amino}benzyl)thio]acetic acid]
- melting point: 94 to 96 °C
- fold induction at 0.1 µM (PPARγ-RXRα heterodimer): 2.8

SMILES: Cc1oc(C2CCCCC2)c(COc2cccc(CSCC(=O)O)c2)c1-c1ccc(F)cc1 [Example 5(2), [(3-{[2-Dichlorohexyl-4-(4-fluorophenyl)-5-methyl-3-furyl]methoxy}benzyl)thio]acetic acid]
- fold induction at 0.1 µM (PPARγ-RXRα heterodimer): 2.3
